Experiment: xn = mol fraction of the nth substance listed, in the solute-free solvent

FC(F)(F)c1cccnc1Cl + CN(C)C=O + CCO
solubility (g/100 g solution)
Conditions	263.15 K	268.15 K	273.15 K	278.15 K	283.15 K	288.15 K	293.15 K	298.15 K	303.15 K
x2 = 0.2013	36.2	43.5	51.6	59	67	74.8	82.5	89.4	95.4
x2 = 0.3352	41.2	48.1	56.3	62.5	69.5	77	83.4	90.3	96
x2 = 0.5291	47.4	53.8	60.5	66.9	73.2	79.9	85.7	91.4	96.8
x2 = 0.7496	51.2	57.2	63.7	69.6	75.4	81.3	86.7	92.5	97.7

Cl.NC(Cc1ccccc1)C(=O)OCc1ccccc1 (stereo unspecified) + CO + CC(C)=O
solubility (g/100 g solution)
Conditions	x2 = 0.1	x2 = 0.2	x2 = 0.3	x2 = 0.4	x2 = 0.5	x2 = 0.6	x2 = 0.7	x2 = 0.8	x2 = 0.9
283.15 K	0.104	0.31	1.34	2.29	3.85	5.52	7.5	9.27	11.1
293.15 K	0.238	0.665	1.52	2.75	4.55	6.53	8.94	11	13.1
303.15 K	0.306	0.778	1.83	3.37	5.58	7.97	10.7	13.6	15.5
313.15 K	0.482	0.999	2.35	4.15	6.96	9.8	13.2	15.8	18.4
323.15 K	0.588	1.3	2.96	5.13	8.44	12.1	15.8	19.4	21.6

Reference: the CheMixHub drug solubility set
